Measurements taken from US20260199529A1, “EPITHELIAL CELL ADHESION MOLECULE-SPECIFIC PEPTIDE CONJUGATES AND METHODS” (REGENTS OF THE UNIVERSITY OF MICHIGAN, priority 2022, published 2026).
Entries after “also recorded” stand apart in the source; their conditions may differ. Values belong to the molecule of their own block, whether it stands above or below them. Where a SMILES comes first, the peptide text is derived from it. Where no end group is shown, it is not given here. The star is where a group is joined. X1 = CC1(C)C(=CC=C2CCCC(C=CC3=[N+](CCCCS(=O)(=O)[O-])c4ccc(S(=O)(=O)O)cc4C3(C)C)=C2Oc2ccc(S(=O)(=O)O)cc2)N(CCCCCC(=O)NCCN2C(=O)CC(*)C2=O)c2ccc(S(=O)(=O)O)cc21

Legend:
EpCAM [1] = target: T1, EpCAM (Homo sapiens, UniProt P16422); test: siRNA knockdown validation of binding (confocal microscopy); format: cell-based; conditions: for fluorescence intensity / cell surface staining, siEpCAM versus siCL: Hep3B (EpCAM+) cells, siRNA against EpCAM vs control siRNA
T1 construct: endogenous in cells; host or cells: Hep3B human HCC cells (A1 also names human SG231 ICC cells)
T1 sequence (P16422 24-314): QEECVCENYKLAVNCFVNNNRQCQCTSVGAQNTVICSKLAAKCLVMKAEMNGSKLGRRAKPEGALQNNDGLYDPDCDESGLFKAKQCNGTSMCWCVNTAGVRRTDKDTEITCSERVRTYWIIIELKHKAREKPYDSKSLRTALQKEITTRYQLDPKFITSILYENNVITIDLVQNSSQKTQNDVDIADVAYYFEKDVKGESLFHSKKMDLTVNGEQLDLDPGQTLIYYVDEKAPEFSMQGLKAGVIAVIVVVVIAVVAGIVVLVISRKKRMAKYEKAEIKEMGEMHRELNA
Method: (§1) An ANOVA was fit with terms for 3 treatments, 2 siRNA effects, and their interactions using slides in triplicate. […] Fluorescence intensities were measured from 10 cells chosen randomly from 3 slides. * P<0.01 by pairwise comparisons.
Specific binding of HPD*-IRDye800 to EpCAM was validated using siRNA knockdown in human SG231 (EpCAM+) ICC cells. Preliminary data were obtained using Hep3B (EpCAM+) human HCC cells. The cells were treated with siRNA against EpCAM (siEpCAM) and control siRNA (siCL).

EpCAM [2] = target: T1, EpCAM; test: competition assay with unlabeled peptide; format: cell-based; conditions: unlabeled competitor added at 0-120 mM
Method: as §1
Specific binding of HPD*-IRDye800 to EpCAM was also validated using a competition assay. Unlabeled HPD* was added to compete for binding with IRDye800-labeled HPD* with concentrations ranging from […].

[3] = system: patient-derived xenograft (PDX) tumor model of HCC; test: in vivo whole-body fluorescence imaging, PDX tumor model of HCC; design: species or system mouse; conditions: over 24 hours
Method: (§2) A) Images were collected with excitation at λex=800 nm before (pre) and at 0, 0.5, 1.0, 1.25, 1.5, 2, 4 and 24 hours post-injection of HPD*-IRDye800. […] PFH*-IRDye800 was administered for use as control. […] B) The quantified T/B ratio confirms a peak uptake of HPD*-IRDye800 by tumor at 1.5 hours. The adjacent non-tumor tissue region with equal area to the tumor region was used for background.
(§3) Tumor-bearing mice [a patient-derived xenograft (PDX) tumor model of HCC] were injected intravenously with the HPD*-IRDye800 and control peptides (300 μM in 200 μl PBS). Unlabeled peptide and ICG were administrated as above. The spatial extent and margins of tumors were identified using a NIR whole-body fluorescence imaging system (Pearl®, LI-COR Biosciences) up to 24 h post injection. The images were acquired using λex=800 nm with 85 μm resolution and 16.8×12 cm^2 field of view (FOV). Image Studio software (Li-Cor Biosciences) was used for analysis. Regions of interest (ROI) with area equal to that of the tumor and adjacent in location was measured for background.

[4] = system: human HCC Hep3B xenograft tumors; test: in vivo NIR fluorescence imaging of orthotopic Hep3B xenograft tumors
Method: (§5) A total of n=8 animals were studied per group. […] P-values were calculated using a one-way ANOVA model. Background was defined as the adjacent non-tumor region with equal area of the tumor region.

EpCAM [5] = target: T1, EpCAM; test: co-localization assay with anti-EpCAM-AF488 on Hep3B cells; format: cell-based
Method: (§4) A Pearson's correlation coefficient of p=0.81 was measured from the merged image. […] B) An apparent dissociation constant of kd=43 nM, R^2=0.99 was measured for HPD*-IRDye800 binding to Hep3B cells. The equilibrium dissociation constant kd=1/ka was calculated by performing using a least square fit of the data to the non-linear equation I=(I0+ImaxKa[X])/(I0+Ka[X]). I0 and Imax are the initial and maximum fluorescence intensities, corresponding to no peptide and at saturation, respectively, and [X] represents the concentration of the bound peptide. Results are the mean values from 3 independent experiments. C) Peptide stability in mouse serum was measured by intravenously injecting HPD*-IRDye800 (200 μM in 200 μL of PBS) in mice (n=5). Serum was collected at various time points from 0-24 hours post-injection. The fluorescence intensity I(t) was measured and fit to a first-order kinetics model I(t)=Io+A×exp(−Bt).
Finally, specific binding of HPD*-IRDye800 to EpCAM was validated using a co-localization assay. Binding by HPD*-IRDye800 and anti-EpCAM-AF488 to the surface (arrows) of Hep3B cells co-localized with a correlation of p=0.81 measured on the merged image, FIG. 3A.

[6] = serum stability (half-life) after intravenous injection in mice; format: in vivo; conditions: 40 nmol, mouse serum, 0-24 hours, first-order kinetics fit, read-out: serum half-life T1/2 (converted)
Method: as §4
The serum half-life of HPD*-IRDye800 was measured to assess peptide stability. HPD*-IRDye800 was injected intravenously in live mice. Fluorescence intensities were measured time points ranging from 0-24 hours, and fit to a first order kinetic model.

human HCC tumor = test: ex vivo immunofluorescence of resected xenograft liver sections; design: species or system mouse; conditions: immunofluorescence on resected liver sections
From the text: After imaging was completed as described in Example 6, the mice were euthanized, and the livers were resected, formalin-fixed, and sectioned to confirm EpCAM expression in human […] tumors. […] The merged image confirms co-localization of peptide and antibody binding to HCC tumor but not to normal mouse liver, FIG. 8D.

[7] = peptide toxicity, animal necropsy histology (H&E); format: in vivo, mouse; conditions: brain, heart, liver, spleen, lung, kidney, stomach, colon
Method: Mice were sacrificed at […].
Tumor bearing mice were euthanized on day 0 and 15 post-injection of the HPD*-IRDye800 and control peptides. Whole blood (~600 μL) was collected by cardiac puncture and submitted for standard hematology and chemistry. Major organs, including liver, kidney, heart, lung, spleen, stomach, intestine, and brain were resected, processed, and evaluated as routine histology (H&E). A total of 8 mice in each cohort were evaluated.

human HCC specimens = test: immunofluorescence binding to human HCC specimens ex vivo
Method: Binding of HPD*-IRDye800 to human HCC specimens and metastatic lymph nodes ex vivo was examined using immunofluorescence.
The merged images show co-localization of peptide and antibody binding to HCC and normal liver, and a Pearson's correlation coefficient of p=0.68 and 0.66, respectively, were calculated. […] Results were compared with histology evaluated by an expert liver pathologist.

[8] = in vivo whole-body fluorescence imaging, PDX tumor model of HCC; design: species or system mouse; conditions: mouse, in vivo, iv, 300 uM in 200 ul PBS, whole-body imaging up to 24 hours, read-out: time of peak T/B ratio post-injection
Method: as §2, §3

[9] = system: HCC micrometastases in lung; test: detection of lung micrometastases (immunofluorescence); design: species or system mouse; conditions: lung tissue sections of PDX tumor model mice
From the text: D) Anti-cytokeratin stain confirms presence of human tumor (arrow). […] F) Corresponding histology (H&E) verifies HCC tumor in lung.
Immunofluorescence images were also collected from lung tissue sections of the PDX tumor model of HCC mice.

in vivo = conditions: mouse, iv, 150 µM, 200 uL
Method: as §5

[10] = target: T2, Epithelial cell adhesion molecule (EpCAM) (human, UniProt P16422 24-314); test: flow cytometry, HPD*-IRDye800 0-200 nM on Hep3B cells; apparent dissociation constant
T2 construct: whole, on cells; also called human EpCAM
T2 sequence (looked up): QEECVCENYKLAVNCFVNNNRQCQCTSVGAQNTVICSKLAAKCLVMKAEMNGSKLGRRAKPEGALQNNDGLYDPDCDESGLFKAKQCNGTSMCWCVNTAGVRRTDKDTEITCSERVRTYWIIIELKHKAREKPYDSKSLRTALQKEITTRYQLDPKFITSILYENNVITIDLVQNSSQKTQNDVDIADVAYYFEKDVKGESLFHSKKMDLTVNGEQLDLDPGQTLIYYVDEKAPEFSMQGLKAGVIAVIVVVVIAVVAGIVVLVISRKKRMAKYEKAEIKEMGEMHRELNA

Molecule: HPDMFTRTHSHN [HPD*, Optimized EpCAM-specific peptide, unlabeled]
fluorescence intensity / cell surface staining, siEpCAM versus siCL (EpCAM [1]): significantly greater signal for siCL versus siEpCAM
mean fluorescence intensity from HPD*-IRDye800 with competition from unlabeled peptide (EpCAM [2]): Decreased intensity; also recorded: decreased significantly
tumor uptake / T/B ratio in whole-body images [3]: reduced values

Molecule: CSCC[C@H](NC(=O)[C@H](CC(=O)O)NC(=O)[C@@H]1CCCN1C(=O)[C@@H](N)Cc1c[nH]cn1)C(=O)N[C@@H](Cc1ccccc1)C(=O)N[C@H](C(=O)N[C@@H](CCCNC(=N)N)C(=O)N[C@H](C(=O)N[C@@H](Cc1c[nH]cn1)C(=O)N[C@@H](CO)C(=O)N[C@@H](Cc1c[nH]cn1)C(=O)N[C@@H](CC(N)=O)C(=O)NCC(=O)NCC(=O)NCC(=O)N[C@@H](CO)C(=O)N[C@@H](CSC1CC(=O)N(CCNC(=O)CCCCCN2C(=CC=C3CCCC(C=CC4=[N+](CCCCS(=O)(=O)[O-])c5ccc(S(=O)(=O)O)cc5C4(C)C)=C3Oc3ccc(S(=O)(=O)O)cc3)C(C)(C)c3cc(S(=O)(=O)O)ccc32)C1=O)C(N)=O)[C@@H](C)O)[C@@H](C)O (some centres unmarked) [HPD*-IRDye800] (H-HPDMFTRTHSHNGGGSC(X1)-NH2; N-terminus and C-terminus assumed)
fluorescence intensity / cell surface staining, siEpCAM versus siCL (EpCAM [1]): Decreased cell surface staining; also recorded: reduced intensity
binding to the surface of siCL (control) Hep3B cells (EpCAM [1]; confocal microscopy, control siRNA Hep3B cells): strong binding
binding to the surface of Hep3B human HCC cells (EpCAM [5]; confocal microscopy): bind intensely
Pearson's correlation coefficient, co-localization with anti-EpCAM-AF488 (EpCAM [5]; merged image, Hep3B cells): 0.81
half-life [6]: 156 min
staining of HCC tumor cell surface (but not normal mouse liver) (human HCC tumor): strong staining; also recorded: Bright fluorescence
acute toxicity on histology (H&E) of vital organs [7]: No signs of acute toxicity
fold increase in mean fluorescence intensity, HCC versus normal human liver (human HCC specimens; HCC n=36, normal n=12): 2.6 fold
Pearson's correlation coefficient, co-localization with anti-EpCAM-AF488 (human HCC specimens; human HCC sections): 0.68
AUC of ROC curve, HCC versus normal (human HCC specimens; human specimens ex vivo): 0.81
sensitivity to distinguish HCC from normal (ROC) (human HCC specimens; human specimens ex vivo): 85%
specificity to distinguish HCC from normal (ROC) (human HCC specimens; human specimens ex vivo): 66%
mean fluorescence intensity, binding to HCC versus normal human liver (human HCC specimens; immunofluorescence): significantly greater
staining of the surface of human HCC cells (human HCC specimens; immunofluorescence, human specimens): Intense staining; also recorded: strong staining
Pearson's correlation coefficient, co-localization with anti-EpCAM-AF488 (human HCC specimens; normal human liver sections): 0.66
tissue to tissue ratio [8]: 1.5
tumor uptake / T/B ratio in whole-body images [3]: greater uptake
detection of / binding to HCC micrometastases in lung [9]: detected very small tumor volumes in the form of micrometastases; also recorded: strong binding
tissue to tissue ratio (in vivo): 1.5
time to near complete clearance / signal back to baseline ([4]; Hep3B xenograft tumors, post-injection): ~ 48 hours
NIR fluorescence intensity of tumor versus PFH*-IRDye800 ([4]; […] post-injection, Hep3B xenograft): significantly greater
mean tumor intensity, fold greater than PFH*-IRDye800 ([4]; […] post-injection, tail vein, Hep3B xenograft): > 3.2 fold

B1: HPD*-IRDye800 (peptide)
peptide: HPDMFTRTHSHNGGGSC
modifications: also: IRDye800 attached via C-terminal GGGSC linker
notes: also called IRDye800-labeled HPD*; EpCAM-specific peptide conjugate
Kd [10]: 43 nM

Second part, led by results:

time of peak uptake / peak T/B ratio post-injection ([4]; Hep3B xenograft tumors, imaged 0-48 hours): over 48 hours
Molecule: CC1(C)C(/C=C/C=C/C=C/C=C2\N(CCCCS(=O)(=O)[O-])c3ccc4ccccc4c3C2(C)C)=[N+](CCCCS(=O)(=O)[O-])c2ccc3ccccc3c21.[Na+] [ICG, reference compound]
tumor uptake / T/B ratio in whole-body images [3]: non-specific uptake

fluorescence intensity / cell surface staining, siEpCAM versus siCL (EpCAM [1]): non-significant difference
Molecule: PFHDMHSNHTRT [PFH*, Unlabeled scrambled peptide (control), reference compound]
